By IC50 is commonly meant the concentration at which inhibition is half-maximal. The low end stands for inhibition by little substance, the high end for a need for much substance.

For data set [1], the system named is RSV A2 (PRNT1). Kind of data set: RSV plaque reduction assay, A2 (PRNT1), Vero cells. Type of data set: cell-based, respiratory syncytial virus. The following applies: n = 4. As to the method:
Plaque Reduction Assay: […] After an overnight incubation at 37° C. in a humidified 5% CO2 atmosphere, the monolayer of cells should be approximately 90% confluent. Antiviral compounds were titrated in pre-warmed Serum Free (SF) Optimem in a U-bottom 96 well plate. […] Media was then removed from cells and replaced with PBS (100 μl/well). RSV stock was thawed and diluted in SF Optimem media to 4000 PFU/mLl. An equal volume of virus was added to compounds on the titration plate. PBS was removed from cells which were then inoculated with the virus/compound solution (50 μL/well). Cells were incubated for 2 h in a 37° C.+5% CO2 humidified incubator to allow infection. […] Immunostaining Procedure: Media was removed from cells and the monolayer washed with PBS. Cells were fixed with ice cold 80% Acetone in PBS (100 μl/well) for 20 mins at −20° C. […] Blocking solution was removed and plates washed once with PBS-T. Primary antibody in blocking solution was added to plates (50 μl/well) and incubated for 1 h at 37° C. Plates were then washed 3 times with PBS-T. Secondary antibody in blocking solution was added to plates (50 μL/well) and incubated for 1 h at 37° C. in the dark. […] Plates were scanned on the Odyssey Imager (Li-Cor Biosciences) at a resolution of […], medium quality and level 5 intensity in the […]. Data Analysis: Images obtained were saved and plaque numbers counted with the aid of computer imaging software. EC50 values for compounds were derived from dose response curves [three variable log (inhibitor) vs response] obtained using Graphpad Prism software.
A general note: Plaque reduction counts the foci of infection that form in a cell layer.

A short description of data set [2]: Liver microsomal stability, rat. Conditions: male, Sprague Dawley, read-out: Liver Microsomal Stability T1/2, rat. Type of data set: in vitro ADME. As for the experimental part: (§1) Microsomal Incubation: Experimental Procedure
(§2) Pooled human liver microsomes (pooled male and female), pooled rat liver microsomes (male Sprague Dawley rats) and pooled dog liver microsomes (male Beagle dog) are purchased from a reputable commercial supplier and stored at −80° C. prior to use.
The final incubation volume is 50 μL. A control incubation is included for each compound tested where 0.1 M phosphate buffer pH 7.4 is added instead of NADPH (minus NADPH). Two control compounds are included with each species. All incubations are performed singularly for each test compound.
(§3) The reactions are stopped by transferring 25 μL of incubate to 50 μL methanol at the appropriate time points. The termination plates are centrifuged at 2,500 rpm for 20 min at 4° C. to precipitate the protein. Following protein precipitation, the sample supernatants are combined in cassettes of up to 4 compounds, internal standard is added and samples analysed by LC-MS/MS. From a plot of ln peak area ratio (compound peak area/internal standard peak area) against time, the gradient of the line is determined. Subsequently, half-life and intrinsic clearance are calculated
On the technique in general: Liver microsomes are vesicles of endoplasmic reticulum, rich in cytochrome P450 enzymes.

Data set [3] in a line: Liver microsomal stability, dog. Type of data set: in vitro ADME. Conditions: male, Beagle, pooled liver microsomes, pH 7.4, 3 μM compound, read-out: Liver Microsomal Stability T1/2, dog. As for the experimental part: as §1, §2
(§4) Microsomes (final protein concentration 0.5 mg/mL), 0.1 M phosphate buffer pH 7.4 and test compound (final substrate concentration 3 μM; final DMSO concentration 0.25%) are pre-incubated at 37° C. prior to the addition of NADPH (final concentration 1 mM) to initiate the reaction. The final incubation volume is 50 μL. A control incubation is included for each compound tested where 0.1 M phosphate buffer pH 7.4 is added instead of NADPH (minus NADPH). Two control compounds are included with each species. All incubations are performed singularly for each test compound.
as §3, with “Compounds are incubated for 0, 5, 15, 30 and 45 min. The control (minus NADPH) is incubated for 45 min only. The reactions” for “The reactions”

A short description of data set [4]: Liver microsomal stability, human. The data set is classed as in vitro ADME. The following applies: both sexes, pooled liver microsomes, pH 7.4, 3 μM compound, read-out: Liver Microsomal Stability T1/2, human. As for the experimental part:
as §1, §2, §4
as §3, with “Compounds are incubated for 0, 5, 15, 30 and 45 min. The control (minus NADPH) is incubated for 45 min only. The reactions” for “The reactions”

Data set [5] in a line: In vivo pharmacokinetics in rats (IV and PO). The following applies: male Sprague Dawley rats, 1 mg/kg (IV). More on the design: species or system male Sprague Dawley rats. As to the method: The pharmacokinetics of compounds were studied in vivo in male Sprague Dawley rats at doses of 1 mg/kg (IV) and 10 mg/kg (PO).
Sprague Dawley rats were treated with experimental compounds via intravenous and oral administration. Three animals for each route of administration were used with serial blood sampling at ten time points post dosing of compound.
Animals were weighed and used if between 200-250 g. Serial blood samples were collected at 0.02, 0.08, 0.25, 0.50, 1, 2, 4, 6, 8 and 24 hours post dosing. […] Blood samples were delivered into an anticoagulant (sodium heparin) and centrifuged at 4° C. Plasma samples were subsequently stored frozen at less than −20° C. prior to analysis.
Following protein precipitation with acetonitrile, samples were analysed with tandem liquid chromatography/mass spectrometry using electrospray ionisation. A full matrix curve with internal standards was employed and PK parameters were calculated.
In a similar manner, oral administration was performed by gavage at doses of 5 or 10 mg/kg at a concentration of 5 mg/ml in 1% Methyl cellulose (Sigma M7140), 0.1% Tween 80 in water. Serial samples were taken as described above.
RV039 was administered at doses of 1 mg/kg (IV) and 5 mg/kg (PO).

Setting [6] is: human respiratory syncytial virus, Vero.

Each structure is given as a SMILES string.

With `NCc1ccc2c(c1)nc(CN1C(=O)C3(CC3)c3ccc(F)cc31)n2C1CCC(O)CC1` [Example 8, 1′-((5-(Aminomethyl)-1-((1R,4R)-4-hydroxycyclohexyl)-1H-benzo[d]imidazol-2-yl)methyl)-6′-fluorospiro[cyclopropane-1,3′-indolin]-2′-one], in data set [1], the half-inhibitory concentration (IC50) was 4.8 nM.

With `CC(C)CCn1c(CN2C(=O)C3(CC3)c3ccncc32)nc2cc(CN)ccc21` [Example 6, 1′-((5-(aminomethyl)-1-isopentyl-1H-benzo[d]imidazol-2-yl)methyl)spiro[cyclopropane-1,3′-pyrrolo[2,3-c]pyridin]-2′(1′H)-one], the half-life at 3 μM amounted to 2.08 h in data set [2] (pooled liver microsomes, pH 7.4, 3 μM compound); 18.3 h in data set [3]; 3.82 h in data set [4]. For the same molecule, inhibition in data set [1] (setting [6]) was half-maximal at 2.3 nM (IC50).

For the molecule `CC(C)CCn1c(CN2C(=O)C3(CC3)c3cccnc32)nc2cc(CN)ccc21` [Example 5, 1′-((5-(aminomethyl)-1-isopentyl-1H-benzo[d]imidazol-2-yl)methyl)[spirocyclopropane-1,3′-pyrrolo[2,3-b]pyridin]-2′(1′H)-one], the Volume of distribution entry in data set [5] is listed as “Example 5: 8.2 L/kg”. In data set [1], this molecule registered a half-inhibitory concentration (IC50) of 5.3 nM.

For `NCc1ccc2c(c1)nc(CN1C(=O)C3(CC3)c3ccc(F)cc31)n2C1CCOCC1` [Example 7, 1′-((5-(aminomethyl)-1-(tetrahydro-2H-pyran-4-yl)-1H-benzo[d]imidazol-2-yl)methyl)-6′-fluorospiro[cyclopropane-1,3′-indolin]-2′-one], the half-life at 3 μM in data set [2] (pH 7.4, rat liver microsomes, 3 μM compound) came out at 4.1 h; in data set [3], 55.8 h; in data set [4], 0.557 h. In data set [1] (setting [6]), this molecule came in with an IC50 of 1.6 nM.

The values above are taken from patent US10106539B2, “Spiro-indolines for the treatment and prophylaxis of respiratory syncytial virus infection (RSV)” (REVIRAL LIMITED, priority 2014, dated 2018).
